Consider 14 molecules from ChEMBL document CHEMBL5579894, “Antimicrobial Dihydroflavonols and Isoflavans Isolated from the Root Bark of Dalbergia gloveri” (2024).

Values after ≈ are worked out from the molar mass of the structure shown.

Common to all, as to assay type: functional
For one test, the system named is Staphylococcus aureus. Kind of test: Antibacterial activity against Staphylococcus aureus assessed as reduction in microbial growth incubated for 24 hrs by microdilution method. (Broth dilution looks for growth in wells or tubes with falling amounts of substance.)
For another test, the system named is Candida albicans. Kind of test: Antifungal activity against Candida albicans assessed as reduction in fungal growth incubated for 24 hrs by microdilution method.
For another test, the system named is Escherichia coli. The test is described as follows: Antibacterial activity against Escherichia coli assessed as reduction in microbial growth incubated for 24 hrs by microdilution method.

Consider `C=C(CO)[C@H]1Cc2c(ccc3c(=O)c4c(oc23)COc2cc(OC)c(OC)cc2-4)O1`, for which the results for the MIC in the test on Staphylococcus aureus, in the test with Candida albicans and in the test on Escherichia coli were 612 µM, above 1000 µM and above 1000 µM, respectively.

With `CC(C)=CCC[C@]1(C)C=Cc2cc([C@H]3Oc4cc(O)ccc4C(=O)[C@@H]3O)cc(O)c2O1`, the figures for the minimum inhibitory concentration (MIC) in the test on Staphylococcus aureus, with Candida albicans and in the test on Escherichia coli were 9.2 µM, 74.1 µM (≈ 31.3 µg/mL) and 296 µM, respectively.

On to `CC(C)=CCC[C@]1(C)C=Cc2c(ccc3c2O[C@H](c2ccc(O)c(O)c2)[C@@H](O)C3=O)O1`, for which the MIC (in general, the lowest concentration found to suppress growth) with Staphylococcus aureus was 36.9 µM; with Candida albicans, 74.1 µM (≈ 31.3 µg/mL); in the test on Escherichia coli, above 1000 µM.

In the case of `COc1ccc(C2COc3c(ccc4c3C=CC(C)(CCC=C(C)C)O4)C2)c(O)c1O` (configuration not stated), the MIC is 36.9 µM with Staphylococcus aureus, 36.9 µM (≈ 15.6 µg/mL) in the test on Candida albicans and 296 µM in the test on Escherichia coli.

On to `CC(C)=CCC/C(C)=C/Cc1c(O)ccc2c(=O)c(O)c(-c3ccc(O)c(O)c3)oc12`, for which the MIC in the test with Staphylococcus aureus, in the test on Candida albicans and in the test on Escherichia coli was above 1000 µM each time.

For the molecule `COc1ccc([C@@H]2COc3c(ccc(O)c3C/C=C(\C)CCC=C(C)C)C2)c(O)c1O`, the MIC came to 36.7 µM with Staphylococcus aureus, 73.7 µM (≈ 31.3 µg/mL) with Candida albicans and 294 µM in the test with Escherichia coli.

`CC(C)=CCC/C(C)=C/Cc1cc([C@H]2Oc3cc(O)ccc3C(=O)[C@@H]2O)cc(O)c1O`: the minimal inhibitory concentration (MIC) with Staphylococcus aureus is 36.7 µM; in the test with Candida albicans, 73.7 µM (≈ 31.3 µg/mL); in the test on Escherichia coli it was 294 µM.

On to `C=C[C@@](C)(CCC=C(C)C)c1cc([C@@H]2COc3cc(O)ccc3C2)c(O)c(O)c1OC`, for which the values for the minimum inhibitory concentration (MIC) in the test on Staphylococcus aureus, with Candida albicans and with Escherichia coli were 18.4 µM, 73.7 µM (≈ 31.3 µg/mL) and above 1000 µM, respectively.

Consider `O=C(CC(O)c1ccc(O)cc1)c1ccc(O)cc1O` (configuration not stated), for which the results for the minimum inhibitory concentration (MIC) with Staphylococcus aureus, in the test on Candida albicans and in the test on Escherichia coli were 14.2 µM, 56.9 µM (≈ 15.6 µg/mL) and above 1000 µM, respectively.

Consider `CC(=O)O[C@H]1CC[C@]2(C)[C@H]3CC=C4[C@@H]5CC(C)(C)CC[C@]5(C(=O)O)CC[C@@]4(C)[C@]3(C)CC[C@H]2C1(C)C` [ACETYL OLEANOLIC ACID], for which the MIC was 251 µM with Staphylococcus aureus, 251 µM (≈ 125 µg/mL) in the test on Candida albicans and above 1000 µM in the test with Escherichia coli.

Regarding `C=C(CO)[C@H]1Cc2c(ccc3c2O[C@@H]2COc4cc(OC)c(OC)cc4[C@]2(O)C3=O)O1` [DABINOL], the MIC in the test with Staphylococcus aureus was 293 µM; in the test on Candida albicans, 147 µM (≈ 62.5 µg/mL); in the test with Escherichia coli it was above 1000 µM.

`O=C(/C=C/c1ccc(O)cc1)c1ccc(O)cc1O` [ISOLIQUIRITIGENIN]: the values for the MIC with Staphylococcus aureus, in the test on Candida albicans and in the test on Escherichia coli were 488 µM, above 1000 µM and above 1000 µM, respectively.

For the molecule `CC(C)=CCCC1(C)C=Cc2c(ccc(C(=O)/C=C/c3ccc(O)cc3)c2O)O1` (configuration not stated) [LESPEOL], the minimal inhibitory concentration (MIC) in the test on Staphylococcus aureus stood at 40 µM; in the test with Candida albicans it was 40 µM (≈ 15.6 µg/mL); in the test with Escherichia coli, 64 µM.

For the molecule `CCCCCCCCN=c1ccn(CCCCCCCCCCn2ccc(=NCCCCCCCC)cc2)cc1` [OCTENIDINE], the minimum inhibitory concentration (MIC) is 0.5 µM in the test with Staphylococcus aureus, 0.5 µM (≈ 0.275 µg/mL) in the test on Candida albicans and 0.5 µM in the test with Escherichia coli.
